Source: paper PMC11742723, “The clinical-stage drug BTZ-043 accumulates in murine tuberculosis lesions and efficiently acts against Mycobacterium tuberculosis” (Nature Communications, 2025)
Several values for one entry are separate records, joined by “and”; a condition that tells them apart may be missing. Equal entries are not always repeated.

Key:
[1] = Impact of γ-irradiation on BTZ-043 in spiked liver mimetic tissue cryosections; parameters: species or system mouse; conditions: for ng/mg lung tissue, technical replicate 1 / ng/mg lung tissue, technical replicate 2 / Extract concentration, technical replicate 1 / Extract concentration, technical replicate 2 / ng/mg lung tissue, Mean: BTZ-043 spiked liver homogenate section (9.7 µg/g); for Extract concentration, technical replicate 1 / Extract concentration, technical replicate 2: LC-MS/MS; for ng/mg lung tissue, Mean: mean of technical replicates
Mtb H37Rv [2] = experiment: Ziehl-Neelsen staining and histology of centrally necrotizing granulomas in IL-13tg mice; assay type: in vivo, Mycobacterium tuberculosis; conditions: 250 mg/kg/day 10 days, versus untreated
Description: Cryosections were fixed with 4% paraformaldehyde/PBS (24 h or 1 h for non-irradiated or irradiated sections, respectively) prior to staining with haematoxylin and eosin (HE), ZN or Heidenhain’s azan trichrome. For immunohistochemical analysis ZN stained cryosections were probed with rabbit polyclonal CD68 antibody (1:200, ab125212, Abcam, Cambridge, UK) which was detected with biotinylated goat anti-rabbit antibody (1:100, 111-065-144, Jackson Immunoresearch, Suffolk, UK)[13]. To visualize lipid droplets, irradiated cryosections were fixed (10% ice-cold formalin/PBS), washed with 60% 2-propanol, and incubated in Oil Red O solution (O0625, Sigma-Aldrich, Taufkirchen, Germany). After washing (60% 2-propanol and water), Gill’s haematoxylin was used for counterstaining. Images were acquired on a BX41 light microscope (Olympus, Hamburg, Germany) using cellSens imaging software (Olympus, Hamburg, Germany) or NIS-Elements software (Nikon, Badhoevedorp, The Netherlands). Post MALDI imaging HE staining was performed with the following protocol[40]: the matrix layer was washed off with MeOH. Rehydrated (2 min in 100%, 70%, 40% EtOH then 100% H2O) samples were submerged in Mayers haematoxylin solution for 12 min followed by 10 min submersion in Na2CO3 (1%) and rinsed with distilled water. Counterstaining was performed by 2-min submersion in 0.5% acidified eosin Y.

Mtb = test system: Mtb; parameters: method as in PMID 37791784; conditions: C3HeB/FeJ substrain, 2 months of therapy; cited from earlier work
Mtb H37Rv [3] = experiment: BTZ-043 dose escalation study in Mtb-infected BALB/c mice (pulmonary CFU); assay type: in vivo, Mycobacterium tuberculosis; conditions: for pulmonary CFU counts / mouse: individual female mice; for antimycobacterial activity compared to INH (25 mg/kg/day): BALB/c

In the case of C[C@H]1COC2(CCN(c3nc(=O)c4cc(C(F)(F)F)cc([N+](=O)[O-])c4s3)CC2)O1 [BTZ-043], the “ng/mg lung tissue, technical replicate 1” value ([1]; irradiation) is reported as 5.99 ng/mg and 26 ng/mg and 6.57 ng/mg and 6.4 ng/mg and 5.5 ng/mg and 5.14 ng/mg and 5.58 ng/mg, the “ng/mg lung tissue, technical replicate 2” value ([1]; irradiation) is reported as 6.75 ng/mg and 23.9 ng/mg and 6.81 ng/mg and 5.4 ng/mg and 6.51 ng/mg and 6.42 ng/mg and the “Extract concentration, technical replicate 1” value ([1]; irradiation) is reported as 0.0193 µg/mL and 0.079 µg/mL and 0.0196 µg/mL and 0.0194 µg/mL and 0.0175 µg/mL and 0.0152 µg/mL and 0.0178 µg/mL. For the same compound, the “Extract concentration, technical replicate 2” value ([1]; irradiation) was 0.0218 µg/mL and 0.0727 µg/mL and 0.0207 µg/mL and 0.0172 µg/mL and 0.0193 µg/mL and 0.0205 µg/mL, the “ng/mg lung tissue, Mean” value ([1]; irradiation) was 6.37 ng/mg and 6.57 ng/mg and 6.6 ng/mg and 5.45 ng/mg and 5.82 ng/mg and 6 ng/mg and the “ng/mg lung tissue, technical replicate 1” value ([1]; no irradiation) was 6.1 ng/mg and 5.48 ng/mg and 7.3 ng/mg and 4.22 ng/mg and 6.84 ng/mg and 6.88 ng/mg and 6.26 ng/mg. The “ng/mg lung tissue, technical replicate 2” value ([1]; no irradiation) was 6.14 ng/mg and 6.24 ng/mg and 7.55 ng/mg and 4.89 ng/mg and 8.49 ng/mg and 7.42 ng/mg and 7.29 ng/mg, the “Extract concentration, technical replicate 1” value ([1]; no irradiation) was 0.0195 µg/mL and 0.0179 µg/mL and 0.0233 µg/mL and 0.0135 µg/mL and 0.0216 µg/mL and 0.0204 µg/mL and 0.0187 µg/mL and the “Extract concentration, technical replicate 2” value ([1]; no irradiation) was 0.0197 µg/mL and 0.0204 µg/mL and 0.0241 µg/mL and 0.0156 µg/mL and 0.0268 µg/mL and 0.0221 µg/mL and 0.0218 µg/mL. For the same compound, the “ng/mg lung tissue, Mean” value ([1]; no irradiation) was 6.12 ng/mg and 5.86 ng/mg and 7.42 ng/mg and 4.56 ng/mg and 7.66 ng/mg and 7.15 ng/mg and 6.78 ng/mg, the “Conc. (Targetlynx export, sample extract)” value ([1]; BTZ-043 spiked liver homogenate section, no irradiation, injections 1 and a, internal standard reserpine) was 1.87E-02 and the “impact of γ-irradiation on the concentration and distribution of BTZ-043” value ([1]; liver mimetic cryosections, 5.85 kGy) was “does not impact”. For the same compound, the “BTZ-043 concentration in liver mimetic cryosection, outlier removed” value ([1]; spiked liver mimetic tissue, rout method outlier) was 24.95 ng/mg, the “acid fast bacilli (AFB) within centrally necrotizing granulomas (ZN staining)” value (Mtb H37Rv [2]) was “most notable reduction in AFB within the layer of foamy macrophages” and the “effect on pulmonary bacterial load” value (Mtb) was “significant reduction of the pulmonary bacterial load”. For the same compound, the “pulmonary CFU counts / mouse” value (Mtb H37Rv [3]; 50 mg/kg BTZ-043, 4 weeks of treatment) was 555882 CFU counts / mouse and 499154 CFU counts / mouse and 2156250 CFU counts / mouse and 558800 CFU counts / mouse and 525176 CFU counts / mouse and 501563 CFU counts / mouse, the “pulmonary CFU counts / mouse” value (Mtb H37Rv [3]; 50 mg/kg BTZ-043, 6 weeks of treatment) was 151667 CFU counts / mouse and 250364 CFU counts / mouse and 426300 CFU counts / mouse and 300706 CFU counts / mouse and 257455 CFU counts / mouse and 439714 CFU counts / mouse and the “pulmonary CFU counts / mouse” value (Mtb H37Rv [3]; 50 mg/kg BTZ-043, 8 weeks of treatment) was 287143 CFU counts / mouse and 182471 CFU counts / mouse and 166050 CFU counts / mouse and 110400 CFU counts / mouse and 84000 CFU counts / mouse. For the same compound, the “pulmonary CFU counts / mouse” value (Mtb H37Rv [3]; 100 mg/kg BTZ-043, 4 weeks of treatment) was 416625 CFU counts / mouse and 429231 CFU counts / mouse and 396000 CFU counts / mouse and 458571 CFU counts / mouse and 415800 CFU counts / mouse and 472500 CFU counts / mouse, the “pulmonary CFU counts / mouse” value (Mtb H37Rv [3]; 100 mg/kg BTZ-043, 6 weeks of treatment) was 34200 CFU counts / mouse and 61091 CFU counts / mouse and 157500 CFU counts / mouse and 207692 CFU counts / mouse and 197308 CFU counts / mouse and 173438 CFU counts / mouse and the “pulmonary CFU counts / mouse” value (Mtb H37Rv [3]; 100 mg/kg BTZ-043, 8 weeks of treatment) was 156000 CFU counts / mouse and 66000 CFU counts / mouse and 39129 CFU counts / mouse and 101769 CFU counts / mouse and 139765 CFU counts / mouse and 67765 CFU counts / mouse. For the same compound, the “pulmonary CFU counts / mouse” value (Mtb H37Rv [3]; 250 mg/kg BTZ-043, 4 weeks of treatment) was 634800 CFU counts / mouse and 254308 CFU counts / mouse and 513000 CFU counts / mouse and 409500 CFU counts / mouse and 484500 CFU counts / mouse and 249923 CFU counts / mouse, the “pulmonary CFU counts / mouse” value (Mtb H37Rv [3]; 250 mg/kg BTZ-043, 6 weeks of treatment) was 49400 CFU counts / mouse and 35888 CFU counts / mouse and 49309 CFU counts / mouse and 39877 CFU counts / mouse and 52521 CFU counts / mouse and 45750 CFU counts / mouse and the “pulmonary CFU counts / mouse” value (Mtb H37Rv [3]; 250 mg/kg BTZ-043, 8 weeks of treatment) was 25080 CFU counts / mouse and 15273 CFU counts / mouse and 21930 CFU counts / mouse and 15218 CFU counts / mouse and 42694 CFU counts / mouse and 15750 CFU counts / mouse. For the same compound, the “pulmonary CFU counts / mouse” value (Mtb H37Rv [3]; 500 mg/kg BTZ-043, 4 weeks of treatment) was 154286 CFU counts / mouse and 324000 CFU counts / mouse and 360000 CFU counts / mouse and 251750 CFU counts / mouse and 312857 CFU counts / mouse and 230769 CFU counts / mouse, the “pulmonary CFU counts / mouse” value (Mtb H37Rv [3]; 500 mg/kg BTZ-043, 6 weeks of treatment) was 54000 CFU counts / mouse and 150231 CFU counts / mouse and 60750 CFU counts / mouse and 101769 CFU counts / mouse and 56100 CFU counts / mouse and 15346 CFU counts / mouse and the “pulmonary CFU counts / mouse” value (Mtb H37Rv [3]; 500 mg/kg BTZ-043, 8 weeks of treatment) was 13200 CFU counts / mouse and 24750 CFU counts / mouse and 35550 CFU counts / mouse and 13714 CFU counts / mouse and 20250 CFU counts / mouse and 14657 CFU counts / mouse. For the same compound, the “pulmonary CFU counts / mouse” value (Mtb H37Rv [3]; 1000 mg/kg BTZ-043, 4 weeks of treatment) was 228000 CFU counts / mouse and 325600 CFU counts / mouse and 166909 CFU counts / mouse and 226154 CFU counts / mouse and 205800 CFU counts / mouse and 140000 CFU counts / mouse, the “pulmonary CFU counts / mouse” value (Mtb H37Rv [3]; 1000 mg/kg BTZ-043, 6 weeks of treatment) was 42075 CFU counts / mouse and 43131 CFU counts / mouse and 54450 CFU counts / mouse and 36450 CFU counts / mouse and 58900 CFU counts / mouse and 98571 CFU counts / mouse and the “pulmonary CFU counts / mouse” value (Mtb H37Rv [3]; 1000 mg/kg BTZ-043, 8 weeks of treatment) was 9208 CFU counts / mouse and 16615 CFU counts / mouse and 22100 CFU counts / mouse and 11500 CFU counts / mouse and 17738 CFU counts / mouse and 28600 CFU counts / mouse. The “reduction of bacterial burden in comparison to the vehicle control group” value (Mtb H37Rv [3]; BALB/c lungs, 4 weeks of therapy, all doses 50-1000 mg/kg/day microcrystalline BTZ-043, oral 5 days/week) was over 0.7 log10 CFU, the “antimycobacterial activity compared to INH (25 mg/kg/day)” value (Mtb H37Rv [3]; 6 weeks, 50 mg/kg/day) was “reduced” and the “antimycobacterial activity compared to INH (25 mg/kg/day)” value (Mtb H37Rv [3]; 6 weeks, 100 mg/kg/day) was “comparable”. The “antimycobacterial activity compared to INH (25 mg/kg/day)” value (Mtb H37Rv [3]; 6 weeks, 250, 500 and 1000 mg/kg/day) was “significantly greater antimycobacterial activity than the first-line drug INH”.
